One may read the IC50 as the concentration that gives 50% inhibition.

One experiment addresses human α4β4-nAChR (Homo sapiens, UniProt P30926+P43681). Briefly: whole-cell current responses of α4β4-nAChR. The format is cell-based. The procedure: (§1) FIG. 9 illustrates that IPT-mediated functional block persisted for α4β2- but not α4β4-nAChR after 3 min of drug washout.
(§2) FIG. 9C depicts the IPT concentration (abscissa; log μM scale) dependence of inhibition of function (ordinate; peak whole-cell current responses normalized to those in the absence of IPT; mean±SE, n=6 cells) of human α4β2-(▪), α4β4-(◯), or α7-(▴) nAChR when IPT is co-applied with agonists.

A further experiment has as its target T1, native α4β2-nAChR (Rattus norvegicus, UniProt P09483+P12390).
T1 construct: native expressed α4β2-nAChRs in single dopamine neurons acutely dissociated from rat VTA; from tissue; host or cells: dopamine neurons acutely dissociated from rat ventral tegmental area (VTA)
As to the kind of experiment: RJR-2403-induced currents in single dopamine neurons acutely dissociated from rat VTA. The settings on record: VTA DA neurons; peak and steady-state currents. The format is cell-based. From the text: FIG. 10 illustrates how typical traces representing four VTA DA neurons responded to α4β2-nAChR selective agonist, RJR-2403 with (FIG. 10B) and without IPT (FIG. 10A). […] Finally, FIG. 10C summarizes the inhibition-efficacy relationship curves of IPT-induced inhibition in peak and steady-state currents.

Experiment [1] addresses α4β2-nAChR agonist binding sites (Homo sapiens, UniProt P17787+P43681). As to the kind of experiment: 3H-epibatidine radioligand binding assay.
A further experiment deals with human α7-nAChR (Homo sapiens, UniProt P36544). As to the kind of experiment: whole-cell current responses of α7-nAChR to choline. The format is cell-based. The procedure:
as §1, §2
A double asterisk (**) represents p<0.01.

A further experiment deals with T2, human α4β2-nAChR (Homo sapiens, UniProt P17787+P43681).
T2 construct: expressed in transfected cells; host or cells: SH-EP1 human epithelial cell line (SH-EP1-hα4β2)
T2 sequence (P43681 29-627 limits assumed): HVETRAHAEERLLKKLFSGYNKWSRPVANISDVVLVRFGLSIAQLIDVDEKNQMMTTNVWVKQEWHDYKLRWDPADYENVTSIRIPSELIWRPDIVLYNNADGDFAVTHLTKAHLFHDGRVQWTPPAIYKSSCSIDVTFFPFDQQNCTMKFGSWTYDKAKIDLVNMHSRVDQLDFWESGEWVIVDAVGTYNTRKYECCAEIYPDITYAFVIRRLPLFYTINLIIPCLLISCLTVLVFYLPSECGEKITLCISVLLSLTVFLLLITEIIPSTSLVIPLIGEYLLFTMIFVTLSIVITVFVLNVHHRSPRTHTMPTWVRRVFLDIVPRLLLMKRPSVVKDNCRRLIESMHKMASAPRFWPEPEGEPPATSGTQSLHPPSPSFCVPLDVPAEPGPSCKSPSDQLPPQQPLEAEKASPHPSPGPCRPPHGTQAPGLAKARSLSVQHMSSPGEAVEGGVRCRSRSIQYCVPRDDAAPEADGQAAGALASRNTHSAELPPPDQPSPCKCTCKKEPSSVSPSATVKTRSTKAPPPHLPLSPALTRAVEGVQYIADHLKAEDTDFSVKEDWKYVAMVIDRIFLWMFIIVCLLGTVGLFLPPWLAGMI
T2 sequence (P17787 26-502): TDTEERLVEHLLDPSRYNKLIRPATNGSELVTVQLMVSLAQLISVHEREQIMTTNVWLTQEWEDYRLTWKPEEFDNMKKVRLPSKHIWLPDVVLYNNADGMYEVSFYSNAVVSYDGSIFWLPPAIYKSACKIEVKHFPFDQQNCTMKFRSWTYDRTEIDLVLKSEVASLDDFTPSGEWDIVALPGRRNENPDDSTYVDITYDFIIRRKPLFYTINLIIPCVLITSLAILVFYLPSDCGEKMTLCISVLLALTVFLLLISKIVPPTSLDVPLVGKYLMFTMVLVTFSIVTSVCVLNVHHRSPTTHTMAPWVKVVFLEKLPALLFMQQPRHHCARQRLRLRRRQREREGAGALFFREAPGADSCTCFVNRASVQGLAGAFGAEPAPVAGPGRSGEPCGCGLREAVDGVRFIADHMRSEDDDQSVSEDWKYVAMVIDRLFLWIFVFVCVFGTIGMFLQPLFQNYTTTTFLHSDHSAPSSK
Briefly: whole-cell voltage-clamp currents of heterologously expressed human α4β2-nAChR in SH-EP1 cells. The format is cell-based. The conditions noted are these: for reduction of peak current amplitude after initial co-application of nicotine with IPT / peak amplitude of 3 μM nicotine-induced current, % of control / response to nicotine challenge after 15 min of IPT exposure, % of control: 3 μM IPT; for reduction of peak current amplitude after initial co-application of nicotine with IPT: 0 min. The text has this:
Heterologously expressed, human α4β2-nAChRs in cloned human epithelia cell (SH-EP1 cell line) were employed as a cellular model to test IPT's pharmacology. IPT acts as a potent and selective antagonist of α4-containing nAChR. IPT inhibits both peak and steady-state whole-cell current responses to nicotinic agonists and accelerates acute desensitization in a concentration-dependent manner while having long-lasting effects after washout. Its effects are enhanced by exposure to nAChR prior to agonist challenge.
The whole-cell traces of nicotinic responses with and without IPT are superimposed in the right traces. For these and all subsequent traces, current amplitude and time calibration bars are indicated, the holding potential (vH) was −60 mV unless indicated otherwise, and the duration of ligand exposure is indicated by the bars above the trace.
In this and all following figures, unless specifically mentioned, each column (or symbol) is the average from 4-6 cells tested, and vertical bars indicate±standard error.

Experiment [2] relates to extracellular dopamine levels in the nucleus accumbens. As to the kind of experiment: microdialysis of extracellular dopamine in nucleus accumbens of acute nicotine-administered rats. Format: in vivo, rat. The text has this:
Finally, the effects of IPT on the extracellular dopamine levels in the nucleus accumbens of acute nicotine-administered rats are illustrated by microdialysis.

[3] abbreviates: 3 μM IPT co-applied with 3 μM nicotine, n=6.
The mark [4] stands for this setting: 50 μM IPT, 3 μM nicotine, holding potential 0 mV.
Where [5] appears, read: 50 μM IPT, 3 μM nicotine, holding potential −40 mV.
Where [6] appears, read: 50 μM IPT, 3 μM nicotine, holding potential −80 mV.

Where two headings read alike, the source gives them in different places. Some results are limits rather than exact numbers.

Chain of α4β2-nAChR agonist binding sites (P43681 29-627 limits assumed): as the sequence (P43681 29-627 limits assumed) above
Chain of α4β2-nAChR agonist binding sites (P17787 26-502): as the sequence (P17787 26-502) above
Chain of human α4β4-nAChR (P43681 29-627 limits assumed): as the sequence (P43681 29-627 limits assumed) above
Chain of human α4β4-nAChR (P30926 22-498): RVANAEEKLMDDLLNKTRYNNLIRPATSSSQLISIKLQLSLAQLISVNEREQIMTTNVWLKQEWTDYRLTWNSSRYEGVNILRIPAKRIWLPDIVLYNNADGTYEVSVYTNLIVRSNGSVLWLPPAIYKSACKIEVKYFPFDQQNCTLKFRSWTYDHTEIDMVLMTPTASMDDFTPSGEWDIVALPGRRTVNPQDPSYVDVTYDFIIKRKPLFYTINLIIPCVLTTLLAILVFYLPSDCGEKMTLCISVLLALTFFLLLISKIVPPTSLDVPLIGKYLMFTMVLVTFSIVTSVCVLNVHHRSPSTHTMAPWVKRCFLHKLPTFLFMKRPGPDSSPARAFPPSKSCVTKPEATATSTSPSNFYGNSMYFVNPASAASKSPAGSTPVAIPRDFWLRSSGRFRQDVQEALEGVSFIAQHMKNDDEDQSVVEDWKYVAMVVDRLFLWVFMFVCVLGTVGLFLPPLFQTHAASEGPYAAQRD
Chain of human α7-nAChR (P36544 23-502): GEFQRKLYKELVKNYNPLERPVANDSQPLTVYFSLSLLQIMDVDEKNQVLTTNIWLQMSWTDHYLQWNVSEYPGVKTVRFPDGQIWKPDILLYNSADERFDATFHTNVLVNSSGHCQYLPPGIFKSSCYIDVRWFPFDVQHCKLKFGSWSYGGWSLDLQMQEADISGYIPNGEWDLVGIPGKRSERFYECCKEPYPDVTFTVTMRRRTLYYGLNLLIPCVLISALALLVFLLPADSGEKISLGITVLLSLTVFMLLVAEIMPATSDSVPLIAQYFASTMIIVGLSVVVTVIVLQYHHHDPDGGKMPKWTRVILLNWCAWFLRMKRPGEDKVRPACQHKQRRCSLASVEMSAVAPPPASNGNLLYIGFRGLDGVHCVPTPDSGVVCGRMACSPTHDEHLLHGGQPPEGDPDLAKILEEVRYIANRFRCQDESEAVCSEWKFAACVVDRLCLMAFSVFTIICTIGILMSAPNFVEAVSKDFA
T1 sequence (P09483 31-630): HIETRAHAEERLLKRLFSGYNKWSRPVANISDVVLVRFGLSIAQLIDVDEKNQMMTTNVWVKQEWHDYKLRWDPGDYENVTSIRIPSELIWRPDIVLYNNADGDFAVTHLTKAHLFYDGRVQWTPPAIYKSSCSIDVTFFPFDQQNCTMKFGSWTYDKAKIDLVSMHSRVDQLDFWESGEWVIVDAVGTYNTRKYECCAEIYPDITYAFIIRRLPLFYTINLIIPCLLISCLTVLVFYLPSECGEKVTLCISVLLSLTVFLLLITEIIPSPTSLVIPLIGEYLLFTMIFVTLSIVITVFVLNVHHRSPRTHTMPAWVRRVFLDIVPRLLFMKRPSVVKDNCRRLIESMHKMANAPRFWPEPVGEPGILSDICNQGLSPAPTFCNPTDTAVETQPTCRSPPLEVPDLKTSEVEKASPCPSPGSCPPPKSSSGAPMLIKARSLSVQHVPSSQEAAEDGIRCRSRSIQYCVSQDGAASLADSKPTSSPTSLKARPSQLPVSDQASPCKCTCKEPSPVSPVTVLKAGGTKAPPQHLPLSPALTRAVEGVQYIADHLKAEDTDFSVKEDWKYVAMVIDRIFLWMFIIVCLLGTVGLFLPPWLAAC
T1 sequence (P12390 25-500): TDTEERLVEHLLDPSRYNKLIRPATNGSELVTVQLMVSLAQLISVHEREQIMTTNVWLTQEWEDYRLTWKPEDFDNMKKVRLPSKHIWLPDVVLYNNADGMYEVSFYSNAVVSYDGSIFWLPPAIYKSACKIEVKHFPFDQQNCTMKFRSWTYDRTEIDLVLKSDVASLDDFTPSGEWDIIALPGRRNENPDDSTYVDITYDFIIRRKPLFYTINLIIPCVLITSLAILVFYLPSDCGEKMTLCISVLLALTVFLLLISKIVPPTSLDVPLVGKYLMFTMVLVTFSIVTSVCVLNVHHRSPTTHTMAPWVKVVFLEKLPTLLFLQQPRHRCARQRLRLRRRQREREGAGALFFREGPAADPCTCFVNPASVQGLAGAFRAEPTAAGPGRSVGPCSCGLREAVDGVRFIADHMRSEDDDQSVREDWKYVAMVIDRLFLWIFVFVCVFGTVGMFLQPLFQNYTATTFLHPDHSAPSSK

As for `CC(C)NC(C)(C)C(C)C.Cl` [IPT, iptakalim hydrochloride], the “persistence of functional block after 3 min of drug washout” value on human α4β4-nAChR (50 μM IPT, 1 μM nicotine) is “not”; at human α4β2-nAChR (50 μM IPT, 3 μM nicotine) it was “persisted”. In addition, the IC50 was 23 µM on human α4β4-nAChR (co-application with agonist (1 μM nicotine), peak current, read-out: IC50 for functional inhibition); greater than 1000 µM on human α7-nAChR (co-application with agonist (choline), peak current, read-out: IC50 for α7-nAChR blockade); 1 µM on human α4β2-nAChR (co-application condition, 3 μM nicotine, n=6, read-out: IC50 for inhibition of whole-cell steady-state current); 31 µM on human α4β2-nAChR (co-application with agonist, without pretreatment, 3 μM nicotine, read-out: IC50 for inhibition of peak whole-cell responses); 5 µM at human α4β2-nAChR (with 3 min pretreatment with IPT, 3 μM nicotine, read-out: IC50 for inhibition of peak whole-cell responses). On native α4β2-nAChR, the “effect on RJR-2403-induced current response” value is “inhibited RJR-2403-induced current response in a concentration-dependent manner”. Also, the “block of 3H-epibatidine binding” value in experiment [1] (concentrations up to 1 mM) is given as “failed to block radioligand binding”. The “inhibition of α7-nAChR-mediated currents” value at human α7-nAChR (10 μM IPT, 3 min pre-treatment then co-application, 1 mM choline) is recorded as 3.5±0.4%. On human α4β2-nAChR (3 μM IPT co-applied with 3 μM nicotine, VH −60 mV, n=6), the “reduction of peak whole-cell current (Ip)” value stood at 20.85±2.69%. Also, the “acceleration of rate of decay from peak to steady-state current” value at human α4β2-nAChR (setting [3]) was determined as 21.38±3.40%. Also, the “reduction of ratio of steady-state to peak current (Is/Ip)” value on human α4β2-nAChR (setting [3]) was 68.62±2.23%. The “reduction of peak current amplitude after initial co-application of nicotine with IPT” value at human α4β2-nAChR (3 μM nicotine, nicotine at start and end only (second value)) came out at 13.6±2.4%; on human α4β2-nAChR (3 μM nicotine, repetitive nicotine challenge protocol (first value)) it was 16.8±6.1%. Besides, the figures for the “peak amplitude of 3 μM nicotine-induced current, % of control” value on human α4β2-nAChR (3 min pre-treatment ending before exposure to nicotine alone), on human α4β2-nAChR (3 min pre-treatment followed by continued co-application) and on human α4β2-nAChR (co-application with nicotine without pre-treatment) were 81±7 % of control, 62±4 % of control and 79±9 % of control, respectively. Further, the “response to nicotine challenge after 15 min of IPT exposure, % of control” value on human α4β2-nAChR (after repeated nicotine challenges (4 sec at 3 min intervals)) is on record as 11.9±1.7 % of control; at human α4β2-nAChR (without repeated nicotine challenges) it was 29.8±3.3 % of control. Moreover, the “inhibition of α4β2-nAChR-mediated currents” value on human α4β2-nAChR (10 μM IPT, 3 min pre-treatment then co-application, 3 μM nicotine) was 70±11%. Moreover, the “current decay constant, % of control” value at human α4β2-nAChR (setting [4]) is 44±7.6 % of control; on human α4β2-nAChR (setting [5]) it was 30±1.1 % of control; at human α4β2-nAChR (setting [6]), 22±3.4 % of control. For the same compound, the “fractional inhibition of whole-cell peak current responses to nicotine” value turned out to be 68.9±3.5% at human α4β2-nAChR (setting [4]), 76.4±2.6% at human α4β2-nAChR (setting [5]) and 80.9±2.65% at human α4β2-nAChR (setting [6]). For the same compound, the “block of peak whole-cell currents” value on human α4β2-nAChR (50 μM IPT, agonist ACh 10 μM) was 65.81±1.49%; at human α4β2-nAChR (50 μM IPT, agonist RJR-2403 3 μM) it was 72.72±1.98%; at human α4β2-nAChR (50 μM IPT, agonist nicotine 3 μM), 76.37±2.56%. At human α4β2-nAChR (50 μM IPT, agonist cytisine 100 μM (maximally efficacious, partial agonist)), the “block of responses to cytisine” value came to 49.32±3.46%. Also, the “half-time for recovery of peak current response to nicotine challenge” value on human α4β2-nAChR (washout after 4 sec exposure to 50 μM IPT, 3 μM nicotine) is on record as roughly 15 min. In experiment [2] (local perfusion with IPT 1-100 μM from microdialysis probe after s.c. nicotine 0.5 mg/kg, significant 20-80 minutes after nicotine), the “effect on nicotine-induced elevation of dopamine in the nucleus accumbens” value is given as “tended to decrease nicotine-induced elevation of dopamine”.

For `CNC1(C)C2CCC(C2)C1(C)C` (stereo not drawn) [mecamylamine], in experiment [1] (concentrations up to 1 mM), the “block of 3H-epibatidine binding” value is “failed to block radioligand binding”.

As for `CN1CCCC1c1cccnc1` (stereo not drawn) [nicotine, reference compound], the “block of 3H-epibatidine binding” value in experiment [1] (with previously reported IC50 values) is given as “blocked”. Also, the “increase in dopamine levels versus final sample prior to nicotine administration” value in experiment [2] (subcutaneous nicotine 0.5 mg/kg, control group) is on record as 100%.
